From patent US20260209222A1, “CBL-B MODULATORS AND USES THEREOF” (Nimbus Clio, Inc., priority 2022, published 2026) come the findings set out here.

Molecules are shown by their SMILES. A value given as a limit tells only on which side of the number the result lay.

Usually IC50 stands for the concentration that gives 50% inhibition.

In assay [1] the target is T1, Recombinant human Cbl-b (aa 36-427) (Homo sapiens, UniProt Q13191).
T1 construct: Recombinant human Cbl-b (aa 36-427) was expressed in E coli; biotin (biotinylated in vitro); made in house; host or cells: E. coli
T1 sequence (Q13191 36-427): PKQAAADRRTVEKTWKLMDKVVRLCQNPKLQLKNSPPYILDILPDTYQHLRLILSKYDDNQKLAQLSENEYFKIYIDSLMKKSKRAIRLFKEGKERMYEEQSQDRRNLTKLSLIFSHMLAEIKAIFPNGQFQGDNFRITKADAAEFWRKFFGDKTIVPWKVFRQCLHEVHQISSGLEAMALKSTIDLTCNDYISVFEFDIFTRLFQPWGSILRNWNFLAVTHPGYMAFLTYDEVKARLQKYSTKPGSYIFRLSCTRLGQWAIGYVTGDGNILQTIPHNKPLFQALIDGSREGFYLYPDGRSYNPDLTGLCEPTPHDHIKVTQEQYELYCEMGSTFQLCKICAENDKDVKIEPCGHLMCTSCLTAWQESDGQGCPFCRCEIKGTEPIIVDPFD
As to the kind of experiment: Cbl-b Biochemical Assay (TR-FRET). Particulars: 6 nM Cbl-b, 1-2.5 nM Src-Zap70, 0.5 mM ATP; HTRF signal at 520 nm. The procedure:
Cbl-b Biochemical Assay (TR-FRET)
Recombinant human Cbl-b (aa 36-427) was expressed in E coli, purified and biotinylated in vitro. The protein was diluted to 12 nM in freshly prepared assay buffer consisting of 50 mM HEPES, pH 7.0, 100 mM NaCl, 5 mM MgCl2, 0.01% Triton-X 100, 0.01% BSA and 1 mM DTT. Recombinant human Src (aa 254-536)-GSSGSS-Zap-70 (aa 281-297) fusion protein was expressed in E coli and purified. Protein was diluted in assay buffer to 2-5 nM and supplemented with ATP to 1 mM. Fluorescein-BODIPY labeled UBED2D(C85K)-Ub was prepared by conjugating ubiquitin (Ub) labeled at its N-terminus with Fluorescein-BODIPY maleimide (ThermoFisher Catalog no B10250) to E coli expressed and purified UBED2D(C85K) [see Dou et al Nature Structural and Molecular Biology 8: 982-987, 2013]. Recombinant human UBE2D2(C85K) was expressed in E coli, purified and ubiquitinated and Bodipy labelled in vitro. Protein was diluted to 200 nM in assay buffer without MgCl2 (or Cisbio PPI buffer). Streptavidin-Terbium was added to 2 nM and EDTA to 10 mM, to provide a binding assay mix. Compounds were dissolved in DMSO and diluted to prepare a ten-point dilution series. 100 nl of each compound concentration was dispensed in duplicate in a 384 well black assay plate using acoustic dispensing. Wells for maximum signal controls received 100 nl of DMSO only and wells for minimum signal controls received 100 nl of a reference inhibitor compound at a final assay concentration of 100 mM to produce 100% inhibition. 5 μl of diluted Cbl-b enzyme was added to all wells of the assay plate and incubated at RT for 30-60 min. The enzyme assay was initiated by addition of 5 μl of Src-Zap/ATP mix to all wells, and the plate incubated at RT for 60 min. The enzyme reaction was terminated and the binding reaction was initiated by adding 10p of binding assay mix to all wells and incubating the plate at RT for 60 min prior to assay read. Final assay conditions consisted of 6 nM Cbl-b, 1-2.5 nM Src-Zap70, 0.5 mM ATP, 1% (v/v) DMSO (enzyme reaction) and 100 nM UBE2D2(C85K)-Ub-FL-BODIPY, 5 mM EDTA, 1 nM Streptavidin-Tb (binding reaction). The HTRF assay signal was measured at 520 nm on an Envision plate reader, with reference signal at 485 or 620 nm. Data was normalized using maximum and minimum assay controls: % Inhibition=100−(100*((maximum control)−unknown)/(maximum control−minimum control)). A 4-parameter dose-response equation was used to fit the normalized dose-response data and derive an IC50 for test compounds.
On the technique in general: In TR-FRET formats the signal depends on donor and acceptor labels being close together.

The test system of assay [2] is Recombinant human c-Cbl (aa 47-435). As to the kind of experiment: c-Cbl Biochemical Assay (TR-FRET). Particulars: ratio from the Cbl-b and c-Cbl TR-FRET biochemical assays. The method, then: c-Cbl Biochemical Assay (TR-FRET)
Recombinant human c-Cbl (aa 47-435) was expressed in E coli, purified and biotinylated in vitro. The protein was diluted to 12 nM in freshly prepared assay buffer consisting of 50 mM HEPES, pH 7.0, 100 mM NaCl, 5 mM MgCl2, 0.01% Triton-X 100, 0.01% BSA and 1 mM DTT. Recombinant human Src (aa 254-536)-GSSGSS-Zap-70 (aa 281-297) fusion protein was expressed in E coli and purified. Protein was diluted in assay buffer to 5-20 nM and ATP was added to 1 mM. Recombinant human UBE2D2(C85K) was expressed in E coli, purified and ubiquitinated and Bodipy labelled in vitro. Protein was diluted to 200 nM in assay buffer without MgCl2 (or Cisbio PPI buffer). Streptavidin-Terbium was added to 2 nM and EDTA to 10 mM, to provide a binding assay mix. Compounds were dissolved in DMSO and diluted to prepare a ten-point half log dilution series. 100 nl of each compound concentration was dispensed in duplicate in a 384 well black assay plate using acoustic dispensing. Wells for maximum signal controls received 100 nl of DMSO only and wells for minimum controls received 100 nl of a reference inhibitor compound at a final assay concentration of 100 mM to produce 100% inhibition. 5 μl of diluted c-Cbl enzyme was added to all wells of the assay plate and incubated at RT for 30 min. The enzyme assay was initiated by addition of 5 d of Src-Zap/ATP mix to all wells, and the plate incubated at RT for 60-90 min. The enzyme reaction was terminated and the binding reaction was initiated by adding 10p of binding assay mix to all wells and incubating the plate at RT for 60 min prior to assay read. Final assay conditions consisted of 6 nM c-Cbl. 2.5-10 nM Src-Zap70, 0.5 mM ATP. 1% (v/v) DMSO (enzyme reaction) and 100 nM UBE2D2(C85K)-Ub-FL-BODIPY, 5 mM EDTA, 1 nM Streptavidin-Tb (binding reaction). The HTRF assay signal was measured at 520 nm on an Envision plate reader, with reference signal at 485 or 620 nm. Data was normalized using maximum and minimum assay controls: % Inhibition=100−(100*((maximum control)−unknown)/(maximum control−minimum control)). A 4-parameter dose-response equation was used to fit the normalized dose-response data and derive an IC50 for test compounds.

Take `C[C@H]1CCCN(Cc2cc(C(F)(F)F)c3oc(-c4cccc([C@H](c5nncn5C)C5COC5)c4)nc3c2)C1` [I-52]: the IC50 in assay [1] lay within 0.2 to 5 µM. Further, the “Cbl-b/c-Cbl Selectivity” value in assay [2] amounted to 7.
Regarding `C[C@H]1CCCN(Cc2cc(C(F)(F)F)c3oc(-c4cccc([C@@H](c5nncn5C)C5COC5)c4)nc3c2)C1` [I-53], the IC50 in assay [1] was over 5 µM. Besides, the “Cbl-b/c-Cbl Selectivity” value in assay [2] is 1.
`Cn1cnnc1-c1ccc(C(F)(F)F)cc1-c1cc(NCCCC#N)nc(-c2nc3cc(CNCC4CC4)cc(C(F)(F)F)c3o2)c1` [I-54, 4-{[6-(5-{[(cyclopropylmethyl)amino]methyl}-7-(trifluoromethyl)-1,3-benzoxazol-2-yl)-4-[2-(4-methyl-1,2,4-triazol-3-yl)-5-(trifluoromethyl)phenyl]pyridin-2-yl]amino}butanenitrile; formic acid]: the half-inhibitory concentration (IC50) in assay [1] is over 5 µM. Moreover, the “Cbl-b/c-Cbl Selectivity” value in assay [2] was found to be 7.
For the compound `Cn1cnnc1-c1ccccc1-c1cc(NCCCC#N)nc(-c2nc3cc(CNCC(C)(C)O)cc(C(F)(F)F)c3o2)c1` [I-55, 4-((6-(5-(((2-Hydroxy-2-methylpropyl)amino)methyl)-7-(trifluoromethyl)benzo[d]oxazol-2-yl)-4-(2-(4-methyl-4H-1,2,4-triazol-3-yl)phenyl)pyridin-2-yl)amino)butanenitrile], the concentration for half-maximal inhibition (IC50) in assay [1] was under 0.2 µM. The “Cbl-b/c-Cbl Selectivity” value in assay [2] is 11.
With `C[C@H]1CCCN(Cc2cc(C(F)(F)F)c3oc(-c4cccc([C@@H](c5nncn5C)[C@H]5C[C@@H](C(F)(F)F)C5)c4)nc3c2)C1` [I-56], the concentration for half-maximal inhibition (IC50) in assay [1] was over 5 µM. In addition, the “Cbl-b/c-Cbl Selectivity” value in assay [2] is 5.
Take `C[C@H]1CCCN(Cc2cc(C(F)(F)F)c3oc(-c4cccc([C@H](c5nncn5C)[C@H]5C[C@H](C(F)(F)F)C5)c4)nc3c2)C1` [I-57]: the IC50 in assay [1] was over 5 µM. For the same compound, in assay [2], the “Cbl-b/c-Cbl Selectivity” value amounted to 2.
`C[C@H]1CCCN(Cc2cc(C(F)(F)F)c3oc(-c4cccc([C@@H](c5nncn5C)[C@H]5C[C@H](C(F)(F)F)C5)c4)nc3c2)C1` [I-58]: the IC50 in assay [1] is over 5 µM. Besides, the “Cbl-b/c-Cbl Selectivity” value in assay [2] was 4.
For `Cn1cnnc1[C@H](c1cccc(-c2nc3cc(CN4CCC5(CCC5)C4)cc(C(F)(F)F)c3o2)c1)[C@H]1C[C@@H](C(F)(F)F)C1` [I-60], the half-maximal inhibitory concentration (IC50) in assay [1] was over 5 µM. Moreover, in assay [2], the “Cbl-b/c-Cbl Selectivity” value was 1.
With `Cn1cnnc1[C@H](c1cccc(-c2nc3cc(CN4CCC5(CCC5)C4)cc(C(F)(F)F)c3o2)c1)[C@H]1C[C@H](C(F)(F)F)C1` [I-62], the IC50 in assay [1] was over 5 µM. Also, the “Cbl-b/c-Cbl Selectivity” value in assay [2] turned out to be 2.
In the case of `Cn1cnnc1[C@@H](c1cccc(-c2nc3cc(CN4CCC5(CCC5)C4)cc(C(F)(F)F)c3o2)c1)[C@H]1C[C@@H](C(F)(F)F)C1` [I-63], the IC50 in assay [1] is 0.2 to 5 µM. Moreover, the “Cbl-b/c-Cbl Selectivity” value in assay [2] turned out to be 13.
